Eight compounds from ChEMBL document CHEMBL1201862, “PubChem BioAssay data set” (2004) can be followed below.

Test [1] in a line: inhibitors of SNCA 5'UTR-driven reporter translation, confirmation, H4 neuroglioma cells, luminescence (AID 1988). The class given is functional, cell-based.
Test [2] concerns the target Prothrombin (Homo sapiens, UniProt P00734). The test is described as follows: Thrombin 1536 HTS Dose Response Confirmation. [Related pubchem assays: 1046 (Thrombin 1536 HTS; hits were confirmed in this assay)]. The class given is functional.
A short description of test [3]: inhibitors of firefly luciferase expression or activity, dose response, H4 neuroglioma cells, luminescence (AID 1990). The class given is functional, cell-based.
Test [4] is described as follows: Luminescence Cell-Based Dose Response HTS to Identify Inhibitors of 5'UTR Stem-Loop Driven Prion Protein mRNA Translation in H4 Neuroglioblastoma Cells. [Related pubchem assays: 1827 (Project Summary), 1813 (Primary HTS)]. It is filed as functional.
The nature of test [5]: control 3'UTR Renilla luciferase suppression, dose response, counter-screen for Shn3 inhibitor project, cell-based, Clone20-Shn3RL, cherry-picked (AID 624133). The class given is functional. For orientation: Counterscreens check selectivity or assay interference.
Test [6] concerns Vero. The test is described as follows: host cell cytotoxicity of antiviral hits, dose response, cytotoxicity control for West Nile virus antiviral project, secondary assay (AID 1650). The class given is functional. The note with it: Chlorocebus sabaeus.
Test [7] deals with Paired box protein Pax-8 (Homo sapiens, UniProt Q06710). The experiment in a line: inhibitors of PAX8-driven TPO luciferase reporter, dose response, RMG-I cells, cherry-pick (AID 687027).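 Further: luciferase reporter driven by Pax8 target thyroperoxidase promoter measured by SteadyGlo luminescence.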 The class given is functional, cell-based. For orientation: A reporter such as luciferase makes a cellular process visible.
The nature of test [8]: Shn3 3'UTR reporter inhibitors, dose response, cell-based, Clone20 osteoblasts, firefly luciferase, cherry-picked (AID 624132).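 Further: firefly luciferase luminescence from reporter carrying the Shn3 3'UTR in osteoblasts.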 It is filed as functional.
Test [9] concerns Streptococcus sp. 'group A'. The test is described as follows: growth inhibition of control SK(-) GAS strain, dose response, counter-screen for streptokinase expression inhibitor project, luminescence, kanamycin, BacTiterGlo, confirmation (AID 1900). The following applies: Streptococcus sp. 'group A'. It is filed as functional, organism-based.
A short description of test [10]: cells. It is filed as functional, cell-based.
The nature of test [11]: inhibitors of intracellular T. cruzi replication, confirmation, NIH3T3 host cells, beta-gal luminescence (AID 2044).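 Further: intracellular parasites grown in NIH/3T3 mouse fibroblasts as host cells; luminescent beta-galactosidase reporter signal from transgenic T. cruzi replicating inside host cells; inhibitors lower the luminescence signal.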 It is filed as functional, cell-based.
Test [12] is described as follows: cells. It is filed as functional, cell-based. The source holds these as a separate data set.
Test [13] is described as follows: cytotoxicity toward NIH3T3 fibroblasts, dose response, counter-screen, cell-based, ATP luminescence, mouse fibroblasts (AID 2010).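 Further: cells exposed to compound for about 90 hours before reading.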 The class given is functional.
The test system of test [14] is Streptococcus. The test is described as follows: Group A Streptococcus viability loss, dose response, counter-screen for streptokinase expression inhibitor project, luminescence, BacTiterGlo (AID 1915).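 Further: potency for reduction of bacterial viability or growth.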 The following applies: Streptococcus. It is filed as functional, organism-based.
Test [15] is described as follows: microbe, parasite or virus in culture. It is filed as functional. The note with it: Mycobacterium tuberculosis.
For test [16], the target named is T1, Zinc finger protein mex-5 (Caenorhabditis elegans, UniProt Q9XUB2).
T1 sequence (Q9XUB2 whole entry): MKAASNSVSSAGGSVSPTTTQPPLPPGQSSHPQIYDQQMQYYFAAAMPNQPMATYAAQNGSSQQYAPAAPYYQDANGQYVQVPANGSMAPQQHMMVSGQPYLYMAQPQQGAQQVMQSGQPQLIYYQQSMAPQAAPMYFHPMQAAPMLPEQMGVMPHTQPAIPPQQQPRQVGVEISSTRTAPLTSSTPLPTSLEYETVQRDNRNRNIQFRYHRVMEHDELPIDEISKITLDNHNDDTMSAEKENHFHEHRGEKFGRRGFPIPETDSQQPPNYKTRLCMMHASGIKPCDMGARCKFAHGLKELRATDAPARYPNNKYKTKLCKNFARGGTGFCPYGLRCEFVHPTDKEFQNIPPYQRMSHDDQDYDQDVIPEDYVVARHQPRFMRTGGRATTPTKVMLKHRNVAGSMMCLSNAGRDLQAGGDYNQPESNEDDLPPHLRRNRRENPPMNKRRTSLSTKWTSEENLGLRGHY
The test is described as follows: MEX-5/TCR-2 RNA interaction inhibitors, dose response, biochemical, C. elegans, fluorescence polarization (AID 1960).

Test [17] addresses T2, Carboxy-terminal domain RNA polymerase II polypeptide A small phosphatase 1 (Homo sapiens, UniProt Q9GZU7).
T2 sequence (Q9GZU7 whole entry): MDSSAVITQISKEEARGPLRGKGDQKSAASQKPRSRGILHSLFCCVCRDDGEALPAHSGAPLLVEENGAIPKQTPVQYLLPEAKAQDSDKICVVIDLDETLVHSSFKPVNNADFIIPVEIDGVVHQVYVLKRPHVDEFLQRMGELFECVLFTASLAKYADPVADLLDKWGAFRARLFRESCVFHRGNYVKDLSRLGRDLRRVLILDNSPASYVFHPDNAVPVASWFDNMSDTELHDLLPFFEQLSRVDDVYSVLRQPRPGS
The test is described as follows: inhibitors of CTDSP1, concentration-response testing, biochemical assay, absorbance-based, actives from ultra-high-throughput screening (AID 540297). It is filed as functional.

The target of test [18] is T3, Histone-lysine N-methyltransferase NSD2 (Homo sapiens, UniProt O96028).
T3 sequence (O96028 whole entry): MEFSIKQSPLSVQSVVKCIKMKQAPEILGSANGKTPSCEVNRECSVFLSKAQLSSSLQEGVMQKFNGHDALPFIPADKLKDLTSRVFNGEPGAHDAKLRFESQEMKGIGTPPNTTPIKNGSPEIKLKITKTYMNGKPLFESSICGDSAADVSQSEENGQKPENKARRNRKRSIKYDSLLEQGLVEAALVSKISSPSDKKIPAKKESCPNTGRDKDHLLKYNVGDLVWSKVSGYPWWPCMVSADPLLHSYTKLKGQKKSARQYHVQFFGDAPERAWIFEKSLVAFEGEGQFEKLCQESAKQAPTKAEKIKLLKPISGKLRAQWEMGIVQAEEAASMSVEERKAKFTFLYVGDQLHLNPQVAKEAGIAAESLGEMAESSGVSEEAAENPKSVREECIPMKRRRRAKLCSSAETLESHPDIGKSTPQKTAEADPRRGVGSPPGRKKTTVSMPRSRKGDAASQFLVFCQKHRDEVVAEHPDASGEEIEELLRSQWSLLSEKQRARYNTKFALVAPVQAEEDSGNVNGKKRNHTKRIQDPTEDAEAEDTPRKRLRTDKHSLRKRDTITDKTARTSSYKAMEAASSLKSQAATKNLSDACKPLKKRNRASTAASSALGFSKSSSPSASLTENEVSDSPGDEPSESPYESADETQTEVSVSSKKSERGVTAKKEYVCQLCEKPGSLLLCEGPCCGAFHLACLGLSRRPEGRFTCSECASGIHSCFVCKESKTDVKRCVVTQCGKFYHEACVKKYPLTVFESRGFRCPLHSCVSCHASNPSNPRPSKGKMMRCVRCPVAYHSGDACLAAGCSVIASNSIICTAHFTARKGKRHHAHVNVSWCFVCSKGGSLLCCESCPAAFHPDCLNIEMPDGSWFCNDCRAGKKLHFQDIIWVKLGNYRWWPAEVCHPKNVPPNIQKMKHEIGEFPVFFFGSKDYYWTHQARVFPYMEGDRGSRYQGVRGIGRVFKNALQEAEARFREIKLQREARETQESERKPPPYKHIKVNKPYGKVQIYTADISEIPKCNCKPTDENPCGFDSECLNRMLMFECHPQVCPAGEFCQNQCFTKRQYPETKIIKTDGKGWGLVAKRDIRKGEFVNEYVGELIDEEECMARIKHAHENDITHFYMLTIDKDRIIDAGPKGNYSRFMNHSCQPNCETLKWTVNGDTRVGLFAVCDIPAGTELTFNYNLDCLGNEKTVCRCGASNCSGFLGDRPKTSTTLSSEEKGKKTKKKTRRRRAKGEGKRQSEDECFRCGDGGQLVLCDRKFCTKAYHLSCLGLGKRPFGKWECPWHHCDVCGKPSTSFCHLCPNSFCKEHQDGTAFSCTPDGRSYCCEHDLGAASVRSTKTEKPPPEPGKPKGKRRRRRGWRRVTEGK
The class given is biochemical.

Test [19] deals with T4, RNA-binding protein pos-1 (Caenorhabditis elegans, UniProt G5EF15).
T4 sequence (G5EF15 whole entry): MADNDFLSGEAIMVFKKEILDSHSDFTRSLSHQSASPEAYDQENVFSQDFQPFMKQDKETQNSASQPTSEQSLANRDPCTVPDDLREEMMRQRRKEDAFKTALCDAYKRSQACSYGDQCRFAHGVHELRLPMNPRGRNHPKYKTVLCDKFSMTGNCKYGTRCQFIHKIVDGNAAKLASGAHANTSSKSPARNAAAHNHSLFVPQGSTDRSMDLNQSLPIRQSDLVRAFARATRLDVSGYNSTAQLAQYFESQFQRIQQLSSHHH
The test is described as follows: inhibitors of POS-1/mex-3 RNA binding, dose response, biochemical, fluorescence polarization (AID 1964).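 Further: purified POS-1 fused to maltose binding protein made in E. coli; potency of compounds blocking POS-1 binding to fluorescent RNA.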 On the technique in general: In fluorescence polarisation assays a small probe gives low polarisation when free and higher when bound to something large.

Test [20] deals with T5, Bifunctional protein GlmU (Mycobacterium tuberculosis, UniProt P9WMN3).
T5 sequence (P9WMN3 whole entry): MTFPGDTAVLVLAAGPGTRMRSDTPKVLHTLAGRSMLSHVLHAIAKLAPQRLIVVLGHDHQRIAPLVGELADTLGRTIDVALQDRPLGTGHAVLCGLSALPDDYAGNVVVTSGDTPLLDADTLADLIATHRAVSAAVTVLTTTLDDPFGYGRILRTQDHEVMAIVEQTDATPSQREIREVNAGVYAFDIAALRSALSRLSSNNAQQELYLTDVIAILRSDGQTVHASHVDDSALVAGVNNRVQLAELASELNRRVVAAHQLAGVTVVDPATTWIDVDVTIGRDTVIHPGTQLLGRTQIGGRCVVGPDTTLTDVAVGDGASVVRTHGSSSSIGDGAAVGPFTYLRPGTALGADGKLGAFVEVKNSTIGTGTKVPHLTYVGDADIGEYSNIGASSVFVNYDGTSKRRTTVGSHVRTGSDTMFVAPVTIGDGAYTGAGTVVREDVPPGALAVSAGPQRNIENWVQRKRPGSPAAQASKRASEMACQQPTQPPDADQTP
The experiment in a line: Inhibitors of Mycobacterial Glucosamine-1-phosphate acetyl transferase (GlmU). Secondary screen. Further details: species or system Mycobacterium tuberculosis H37Rv.

Structures are written as SMILES. Active and inactive are the calls of the source.

Paired box protein Pax-8, sequence (Q06710 whole entry): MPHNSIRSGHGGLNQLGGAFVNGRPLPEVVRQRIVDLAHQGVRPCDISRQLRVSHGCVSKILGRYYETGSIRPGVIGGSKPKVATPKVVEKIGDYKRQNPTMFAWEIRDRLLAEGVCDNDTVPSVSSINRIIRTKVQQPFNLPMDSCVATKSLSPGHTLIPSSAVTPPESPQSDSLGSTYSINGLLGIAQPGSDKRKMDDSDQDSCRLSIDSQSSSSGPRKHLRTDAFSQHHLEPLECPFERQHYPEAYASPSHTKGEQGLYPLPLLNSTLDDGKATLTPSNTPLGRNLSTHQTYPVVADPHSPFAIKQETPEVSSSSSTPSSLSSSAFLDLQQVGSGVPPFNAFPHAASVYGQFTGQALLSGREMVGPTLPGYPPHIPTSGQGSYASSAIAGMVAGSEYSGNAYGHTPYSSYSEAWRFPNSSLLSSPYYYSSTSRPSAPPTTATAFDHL

On to `C=CCc1cccc(/C=N/NC(=O)CNc2ccccc2)c1O`, for which the EC50 (as a rule, the concentration giving half of the maximal effect) in test [1] is > 120 µM (not active); in test [3], > 120 µM (not active); in test [4], 10.7 µM (active). The IC50 (as a rule, the point on the concentration scale where inhibition reaches its midpoint) in test [2] was > 50 µM (not active).
For the compound `C=C1C(=O)[C@@]23[C@H](O)C[C@@H]4C(C)(C)CC[C@H](O)[C@]4(C)[C@@H]2C[C@H](O)[C@@H]1[C@H]3O`, the results for the AC50 in test [5], in [7] and in [8] were 18.3 µM (active), 3.37 µM (active) and 2.95 µM (active), respectively. The CC50 in test [6] is 14.9 µM (active).
For the compound `Cc1cccc(C)c1Nc1c(-c2ccccn2)nc2ccccn12`, the EC50 was 2.52 µM (active) in [9]; 92.4 µM (active) in test [10]; 1.45 µM (active) in [11]; > 350 µM (not active) in test [12]; 6.81 µM (active) in [13]; 6.43 µM (active) in test [14]. Moreover, the results for the CC50 in [6] and in test [15] were 4.16 µM (active) and 3.91 µM (active), respectively.
Take `CCOc1ccc(NC(=O)C(C)O)c(NS(=O)(=O)c2ccc(CCNC(C)=O)cc2)c1` (stereo not given): in [2], the IC50 is > 50 µM (not active).
Still for that read-out and setting: under `Cc1ccc(S(=O)(=O)/N=C/c2ccco2)cc1` stands > 50 µM (not active).
Consider `CCCC(C)C(=O)Nc1ccc(F)c(Cl)c1` (stereo not given), for which the IC50 in [2] is listed as > 50 µM (not active).
With `O=C(Nc1ccccc1-c1nc2ccccc2s1)c1ccco1`, the CC50 in test [6] is 12.8 µM (active).
`CC(=O)NC1=NC(=O)/C(=C/c2cc(C)n(-c3cccc(C(=O)O)c3)c2C)S1`: the EC50 is > 300 µM (inconclusive) in test [16] and > 300 µM (not active) in test [19]. The IC50 in test [17] was 4.31 µM (active); in test [20], 93.8 µM (active). Moreover, in test [18], the AC50 (commonly the midpoint of the concentration-response curve, whichever way the signal moves) is 9.13 µM (active).
